Patent US20190183124A1, “METHOD FOR CONTROLLING PESTS IN MODIFIED PLANTS” (BASF SE, priority 2016, published 2019)

Test system: Sweetpotato whitefly (Bemisia tabaci)
Assay: Action on Sweetpotato whitefly (Bemisia tabaci) on soybean plants, greenhouse foliar spray
Type: in vivo
Settings: for Mean whitefly nymph response (Whitefly Nymphs D.A.A.-2): dose 60 ppm a.i. (text: 60 g a.i./ha, 200 L/ha), two applications 7 days apart, whole plant counts 3 days after 2nd application, greenhouse
Procedure: The active compound tested was formulated as a SL-type formulation.
Action on Sweetpotato whitefly (Bemisia tabaci)
A randomized block, 2 by 3 factorial experimental design was utilized to determine the interaction effects and main effects of two explanatory variables: product rate and soybean variety on the response variable, whitefly mortality. The study was conducted under greenhouse conditions and utilized lntacta™ (Bt-traited) and ‘BMX Potencia’ (non-traited) varieties at growth stage 11, respectively. All study plants were infested with Bemisia tabaciadults prior to application.
Formulated material of compound I-1 was combined with water and applied at concentration of 60 gai/ha with a CO2 pressurized spray boom at 200 L/ha water volume. The first application was timed to a threshold whitefly infestation, and was followed by a second application 7 days later.
Assessments were conducted by taking whole plant counts of adult and immature whiteflies at 3 days after the second application.

For `CCN(C(=O)c1cnn(C(C)C(C)C)c1C)c1ccnnc1` (stereo not drawn) [I-1, 1-(1,2-dimethylpropyl)-N-ethyl-5-methyl-N-pyridazin-4-yl-pyrazole-4-carboxamide], which “Effect against whiteflies in Intacta soybean relative to BMX Potencia” value (60 g a.i./ha, 3 days after second application, Intacta vs BMX Potencia soybean) is on record?
Its value is “synergistic effect”.

And the “Mean whitefly nymph response (Whitefly Nymphs D.A.A.-2)” value (BMX Potencia (non-traited) soybean)?
Its value is 4.91.

And the “Mean whitefly nymph response (Whitefly Nymphs D.A.A.-2)” value (Intacta (Bt-traited) soybean)?
Its value is 0.57.
